{"source": "patent US9156840B2", "about": "“D2 antagonists, methods of synthesis and methods of use” (ALTOS THERAPEUTICS, LLC, priority 2010, dated 2015)", "note": "Structures can show the parent of a compound that is named as a salt.", "data": [{"molecular_target": "T1, human D2 receptor (Homo sapiens, UniProt P14416)", "T1 construct": "expressed in transfected cells; cDNA from Origene clones TC308892 and SC123573", "T1 sequence (P14416 whole entry)": "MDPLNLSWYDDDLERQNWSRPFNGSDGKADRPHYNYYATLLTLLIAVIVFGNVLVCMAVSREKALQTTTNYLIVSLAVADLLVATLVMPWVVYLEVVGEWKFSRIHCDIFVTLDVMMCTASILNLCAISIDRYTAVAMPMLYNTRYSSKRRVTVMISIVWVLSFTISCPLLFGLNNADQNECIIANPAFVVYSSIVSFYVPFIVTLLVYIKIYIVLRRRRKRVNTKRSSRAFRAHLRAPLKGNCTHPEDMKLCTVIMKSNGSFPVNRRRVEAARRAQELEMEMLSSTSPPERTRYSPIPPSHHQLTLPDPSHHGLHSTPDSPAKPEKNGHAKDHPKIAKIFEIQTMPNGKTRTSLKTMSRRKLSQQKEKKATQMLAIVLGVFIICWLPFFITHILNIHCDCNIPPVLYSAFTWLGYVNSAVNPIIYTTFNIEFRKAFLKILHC", "assay": "D2 receptor radioligand binding assay (membranes of HEK-293 cells expressing human D2 receptor)", "conditions": "radioligand displacement, HEK293 membranes, 37° C. for 120 minutes; read-out: Affinity Score (IC50 values for D2 on a scale of 1 through 5)", "protocol": "Affinity for the dopamine D2 receptor was tested in vitro, and the following describes the construction of cell lines expressing human D2 receptor, as well as the binding assays themselves.\nEstablishment of Stable Cell Lines Expressing Either the Cloned Human D2S Receptor or the Cloned Human D2L Receptor.\nThe human D2 receptor exists in two isoforms: the short form (D2S) and the long form (D2L). The two isoforms are generated from the D2 gene by alternative splicing and the D2L isoform differs from the D2S isoform by the addition of 29 amino acids in the third intracellular loop of its protein structure.\nTo establish HEK-293 cell lines stably expressing either the human D2S or the human D2L, the human dopamine D2S receptor (Genebank Accession Number NM_016574) and human dopamine D2L receptor (Genebank Accession Number BC021195) were amplified by PCR from Origene cDNA clones TC308892 and SC123573 (respectively) using the following primers: 5-[…]-3 (SEQ ID NO: 1) sense and 5-[…]-3 (SEQ ID NO: 2) antisense. The resulting PCR products were respectively cloned into pENTR-D-TOPO (Invitrogen), sequenced and then transferred into the pCDNA3.2-DEST (Invitrogen) using the LR-clonasc gateway reaction (Invitrogen) and sequenced again to verify the genes sequence.\nHEK293 cells were maintained in Eagles Minimum Essential Medium (MEM) supplemented with 0.292 g/L L-glutamine and 10% (v/v) fetal calf serum at 37° C. in a 5% CO2 humidified atmosphere. Cells were grown to 60-80% confluency in 10 cm dishes before transfection. Transfection of the D2S and D2L containing pcDNA3.2-DEST into HEK-293 cells were performed using Lipofectamine 2000 (Invitrogen). Transfected cells were seeded and diluted 2 days after transfection and maintained in culture medium supplemented with 500 μg/mL G418. The HEK-293 cell line expressing the huD2S (R2D2S) and the huD2L (R2D2L) were maintained in culture medium supplemented with 500 μg/mL G418.\nD2 Receptor Binding Assays\nHEK293 cells were in Eagles Minimum Essential Medium (MEM) supplemented with 10% FBS, 0.292 g/liter L-glutamine, 10^5 units/liter penicillin, 100 mg/liter streptomycin and […] Geneticin at 37° C. in a 5% CO2 humidified atmosphere. Cells were grown to 80-90% confluence and harvested with cell stripper (Cellgro #25-056-CI). Cells were then washed with PBS (2×). Cells were either pelleted and frozen at −80° C. or membranes were prepared immediately.\nCells from pellet were resuspended in homogenization buffer (15 mM Tris*HCl, 2 mM MgCl2*6H2O, 0.3 mM EDTA, 1 mM EGTA pH 7.4 @ 4° C.). Cells were then homogenized using a Polytron (PT 1200) homogenizer at setting 6 for 10 seconds. Crude membranes were pelleted at 39, 412 g for 15 min, at 4° C. (2×) in a Sorval RC6 plus centrifuge. Membranes were finally resuspended in resuspension buffer (50 mM Tris*HCl, 120 mM NaCl, 10 mM MgCl2*6H2O, 1 mM EDTA pH 7.4 @ 4° C.) and sonicated (Fisher Sonic Dismembrator) at setting 5 for 10 seconds.\nThe radioligand binding assays were conducted in microtiter plates (Costar #3961) with a final volume of 1.0 mL.\nThe membranes were thawed at room temperature, briefly homogenized using a sonicator, diluted in assay buffer and kept on wet ice until being added to the assay plate. Membranes were diluted to a final target tissue concentration of 10 μg protein per well. The specific binding should be greater than 80% with less than 10% total radioligand bound to minimize ligand depletion errors.\nFirst compound of the invention (50 μL) or assay buffer (50 mM Tris*HCl, 120 mM NaCl, 5 mM MgCl2*6H2O, 1 mM EDTA, 5 mM KCl pH 7.4 @37° C. plus 0.025% BSA), buffer (700 μL) and then membrane (200 μL) were added to the deep well assay plate, which was then shaken for 10 minutes. Finally, radioligand (50 μL) was added.\nThe assay plates were incubated at 37° C. for 120 minutes.\nThe assay plate were filtered over 0.3% PEI pretreated glass fiber filtermats (GF/C) using a Packard Filtermate cell harvester. […]", "units": {"IC50": "nM"}, "values": [{"smiles": "O=C(O)c1cccc(CN2CN(c3ccccc3)C3(CCN(CC4COc5ccccc5O4)CC3)C2=O)c1", "note": "(stereo not drawn) [Compound 76, 3-((8-((2,3-Dihydrobenzo[b][1,4]dioxin-2-yl)methyl)-4-oxo-1-phenyl-1,3,8-triazaspiro[4.5]decan-3-yl)methyl)benzoic acid]", "IC50": "< 10"}, {"smiles": "O=C(O)c1cccc(CN2CN(c3ccccc3)C3(CCN(CCCn4nnc5ccccc54)CC3)C2=O)c1", "note": "[Compound 85, 3-((8-(3-(1H-Benzo[d][1,2,3]triazol-1-yl)propyl)-4-oxo-1-phenyl-1,3,8-triazaspiro[4.5]decan-3-yl)methyl)benzoic acid]", "IC50": "< 10"}, {"smiles": "O=C(O)c1cccc(CN2CN(c3ccccc3)C3(CCN(CCCN4C(=O)Cc5ccccc54)CC3)C2=O)c1", "note": "[Compound 89, 3-((4-oxo-8-(3-(2-oxoindolin-1-yl)propyl)-1-phenyl-1,3,8-triazaspiro[4.5]decan-3-yl)methyl)benzoic acid, hydrochloride]", "IC50": "< 10"}, {"smiles": "O=C(O)c1cccc(CN2CN(c3ccccc3)C3(CCN(CCCn4c(=O)[nH]c5ccc(Cl)cc54)CC3)C2=O)c1", "note": "[Compound 100, 3-((8-(3-(6-Chloro-2-oxo-2,3-dihydro-1H-benzo[d]imidazol-1-yl)propyl)-4-oxo-1-phenyl-1,3,8-triazaspiro[4.5]decan-3-yl)methyl)benzoic acid]", "IC50": "< 10"}, {"smiles": "CC(C)(Oc1ccc(CN2CN(c3ccccc3)C3(CCN(CCCn4c(=O)[nH]c5ccccc54)CC3)C2=O)cc1)C(=O)O", "note": "[Compound 102, 2-Methyl-2-(4-((4-oxo-8-(3-(2-oxo-2,3-dihydro-1H-benzo[d]imidazol-1-yl)propyl)-1-phenyl-1,3,8-triazaspiro[4.5]decan-3-yl)methyl)phenoxy)propanoic acid]", "IC50": "< 10"}, {"smiles": "O=C(O)c1cccc(CN2CN(c3ccccc3)C3(CCN(CCCn4c(=O)n(C5CC5)c5ccccc54)CC3)C2=O)c1", "note": "[Compound 120, 3-((8-(3-(3-Cyclopropyl-2-oxo-2,3-dihydro-1H-benzo[d]imidazol-1-yl)propyl)-4-oxo-1-phenyl-1,3,8-triazaspiro[4.5]decan-3-yl)methyl)benzoic acid]", "IC50": "< 10"}, {"smiles": "CC1(C)C(=O)N(CCCN2CCC3(CC2)C(=O)N(Cc2cccc(C(=O)O)c2)CN3c2ccc(F)cc2)c2ccccc21", "note": "[Compound 123, 3-((8-(3-(3,3-Dimethyl-2-oxoindolin-1-yl)propyl)-1-(4-fluorophenyl)-4-oxo-1,3,8-triazaspiro[4.5]decan-3-yl)methyl)benzoic acid]", "IC50": "< 10"}, {"smiles": "O=C(O)c1cccc(CN2CN(c3ccccc3)C3(CCN(CCCN4C(=O)C5(CC5)c5ccccc54)CC3)C2=O)c1", "note": "[Compound 130, 3-((4-oxo-8-(3-(2′-oxospiro[cyclopropane-1,3′-indoline]-1′-yl)propyl)-1-phenyl-1,3,8-triazaspiro[4.5]decan-3-yl)methyl)benzoic acid, hydrochloride salt]", "IC50": "< 10"}, {"smiles": "CC1(C)C(=O)N(CCCN2CCC3(CC2)C(=O)N(Cc2ccccc2C(=O)O)CN3c2ccccc2)c2ccccc21", "note": "[Compound 137, 2-((8-(3-(3,3-Dimethyl-2-oxoindolin-1-yl)propyl)-4-oxo-1-phenyl-1,3,8-triazaspiro[4.5]decan-3-yl)methyl)benzoic acid]", "IC50": "< 10"}, {"smiles": "O=C(O)c1cccc(CN2CN(c3ccc(F)cc3)C3(CCN(CCCN4C(=O)C5(CC5)c5ccccc54)CC3)C2=O)c1", "note": "[Compound 138, 3-((1-(4-Fluorophenyl)-4-oxo-8-(3-(2′-oxospiro[cyclopropane-1,3′-indoline]-1′-yl)propyl)-1,3,8-triazaspiro[4.5]decan-3-yl)methyl)benzoic acid]", "IC50": "< 10"}, {"smiles": "O=C(O)c1cccc(CN2CN(c3ccccc3)C3(CCN(CCCC(=O)c4cccs4)CC3)C2=O)c1", "note": "[Compound 143, 3-((4-oxo-8-(4-oxo-4-(thiophen-2-yl)butyl)-1-phenyl-1,3,8-triazaspiro[4.5]decan-3-yl)methyl)benzoic acid, hydrochloride]", "IC50": "< 10"}, {"smiles": "O=C(O)c1cccc(CN2CN(c3ccc(F)cc3)C3(CCN(CCCN4C(=O)Cc5ccccc54)CC3)C2=O)c1", "note": "[Compound 145, 3-((1-(4-Fluorophenyl)-4-oxo-8-(3-(2-oxoindolin-1-yl)propyl)-1,3,8-triazaspiro[4.5]decan-3-yl)methyl)benzoic acid]", "IC50": "< 10"}, {"smiles": "CC1C(=O)N(CCCN2CCC3(CC2)C(=O)N(Cc2cccc(C(=O)O)c2)CN3c2ccccc2)c2ccccc21", "note": "(stereo not drawn) [Compound 146, 3-((8-(3-(3-methyl-2-oxoindolin-1-yl)propyl)-4-oxo-1-phenyl-1,3,8-triazaspiro[4.5]decan-3-yl)methyl)benzoic acid]", "IC50": "< 10"}, {"smiles": "O=C(O)c1ccccc1CN1CN(c2ccccc2)C2(CCN(CCCN3C(=O)Cc4ccccc43)CC2)C1=O", "note": "[Compound 148, 2-((4-Oxo-8-(3-(2-oxoindolin-1-yl)propyl)-1-phenyl-1,3,8-triazaspiro[4.5]decan-3-yl)methyl)benzoic acid]", "IC50": "< 10"}, {"smiles": "O=C(O)c1ccccc1CN1CN(c2ccccc2)C2(CCN(CCCN3C(=O)C4(CC4)c4ccccc43)CC2)C1=O", "note": "[Compound 149, 2-((4-Cho-8-(3-(2′-oxospiro[cyclopropane-1,3′-indoline]-1′-yl)propyl)-1-phenyl-1,3,8-triazaspiro[4.5]decan-3-yl)methyl)benzoic acid]", "IC50": "< 10"}, {"smiles": "O=C(O)c1ccccc1CN1CN(c2ccc(F)cc2)C2(CCN(CCCN3C(=O)Cc4ccccc43)CC2)C1=O", "note": "[Compound 152, 2-((1-(4-Fluorophenyl)-4-oxo-8-(3-(2-oxoindolin-1-yl)propyl)-1,3,8-triazaspiro[4.5]decan-3-yl)methyl)benzoic acid]", "IC50": "< 10"}, {"smiles": "O=C(CCCN1CCC2(CC1)C(=O)N(Cc1ccccc1C(=O)O)CN2c1ccccc1)c1ccccc1", "note": "[Compound 154, 2-((4-oxo-8-(4-oxo-4-phenylbutyl)-1-phenyl-1,3,8-triazaspiro[4.5]decan-3-yl)methyl)benzoic acid]", "IC50": "< 10"}, {"smiles": "O=C(O)c1ccccc1CN1CN(c2ccccc2)C2(CCN(CCCn3c(=O)n(C4CC4)c4ccccc43)CC2)C1=O", "note": "[Compound 155, 2-((8-(3-(3-cyclopropyl-2-oxo-2,3-dihydro-1H-benzo[d]imidazol-1-yl)propyl)-4-oxo-1-phenyl-1,3,8-triazaspiro[4.5]decan-3-yl)methyl)benzoic acid]", "IC50": "< 10"}, {"smiles": "O=C(O)c1cccc(CN2CN(c3ccc(F)cc3)C3(CCN(CCCn4c(=O)n(C5CC5)c5ccccc54)CC3)C2=O)c1", "note": "[Compound 156, 3-((8-(3-(3-cyclopropyl-2-oxo-2,3-dihydro-1H-benzo[d]imidazol-1-yl)propyl)-1-(4-fluorophenyl)-4-oxo-1,3,8-triazaspiro[4.5]decan-3-yl)methyl)benzoic acid]", "IC50": "< 10"}, {"smiles": "O=C(O)c1ccccc1CN1CN(c2ccc(F)cc2)C2(CCN(CCCn3c(=O)n(C4CC4)c4ccccc43)CC2)C1=O", "note": "[Compound 159, 2-((8-(3-(3-cyclopropyl-2-oxo-2,3-dihydro-1H-benzo[d]imidazol-1-yl)propyl)-1-(4-fluorophenyl)-4-oxo-1,3,8-triazaspiro[4.5]decan-3-yl)methyl)benzoic acid]", "IC50": "< 10"}, {"smiles": "O=C(O)c1cccc(CN2CN(c3ccccc3)C3(CCN(CCCC4C(=O)Nc5ccccc54)CC3)C2=O)c1", "note": "(stereo not drawn) [Compound 160, 3-((4-oxo-8-(3-(2-oxoindolin-3-yl)propyl)-1-phenyl-1,3,8-triazaspiro[4.5]decan-3-yl)methyl)benzoic acid, hydrochloride]", "IC50": "< 10"}]}]}
